Data reported in BindingDB's records for doi:10.1016/s0960-894x(99)00217-6 (Palatin Technologies, 1999).

Target: T1, Neutrophil elastase (Homo sapiens, UniProt P08246)
T1 sequence (P08246 whole entry): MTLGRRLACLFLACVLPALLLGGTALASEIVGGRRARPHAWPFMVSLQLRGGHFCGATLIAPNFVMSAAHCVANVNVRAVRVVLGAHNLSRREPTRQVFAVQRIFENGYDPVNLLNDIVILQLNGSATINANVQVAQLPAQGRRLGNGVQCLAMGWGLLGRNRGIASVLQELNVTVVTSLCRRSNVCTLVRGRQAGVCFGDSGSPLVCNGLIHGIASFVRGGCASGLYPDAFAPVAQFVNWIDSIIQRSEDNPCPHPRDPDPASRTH
Assay: ChEBML_64294
Text: Kinetic constant for human neutrophil elastase

How did the Ki turn out when `CC[C@@H](C)/C(NCc1ccccc1)=C(\O)[N]1[C@@H](CCCCNC(=O)C23CC4CC(CC(C4)C2)C3)C(=O)[N]2[C@H](C(=O)N[C@H](C(N)=O)C(C)C)C[S][Re]21=[O]` (stereo partly drawn) was run?
The Ki was 194 µM.

How did the Ki turn out when `CC[C@@H](C)/C(NS(=O)(=O)c1ccc(C)cc1)=C(\O)[N]1[C@@H](CCCCNC(=O)C23CC4CC(CC(C4)C2)C3)C(=O)[N]2[C@H](C(=O)N[C@H](C(=O)O)C(C)C)C[S][Re]21=[O]` (stereo partly drawn) was run?
The Ki was 36.7 µM.

With `CC[C@@H](C)/C(NS(=O)(=O)c1ccc(C)cc1)=C(\O)[N]1[C@@H](CCCCNC(=O)C23CC4CC(CC(C4)C2)C3)C(=O)[N]2[C@H](C(=O)N[C@H](C(N)=O)C(C)C)C[S][Re]21=[O]` (stereo partly drawn) as the compound, how does the Ki read?
Its Ki is 133 µM.
